# Data: patent publication US20260125389A1, “MEMBRANE-ASSOCIATED TYROSINE AND THREONINE KINASE INHIBITOR AND USE THEREOF” (HAINAN SIMCERE ZAIMING PHARMACEUTICAL CO., LTD., priority 2022, published 2026)
# Target: T1, PKMYT1 (Homo sapiens, UniProt Q99640)
# T1 sequence (Q99640 1-499): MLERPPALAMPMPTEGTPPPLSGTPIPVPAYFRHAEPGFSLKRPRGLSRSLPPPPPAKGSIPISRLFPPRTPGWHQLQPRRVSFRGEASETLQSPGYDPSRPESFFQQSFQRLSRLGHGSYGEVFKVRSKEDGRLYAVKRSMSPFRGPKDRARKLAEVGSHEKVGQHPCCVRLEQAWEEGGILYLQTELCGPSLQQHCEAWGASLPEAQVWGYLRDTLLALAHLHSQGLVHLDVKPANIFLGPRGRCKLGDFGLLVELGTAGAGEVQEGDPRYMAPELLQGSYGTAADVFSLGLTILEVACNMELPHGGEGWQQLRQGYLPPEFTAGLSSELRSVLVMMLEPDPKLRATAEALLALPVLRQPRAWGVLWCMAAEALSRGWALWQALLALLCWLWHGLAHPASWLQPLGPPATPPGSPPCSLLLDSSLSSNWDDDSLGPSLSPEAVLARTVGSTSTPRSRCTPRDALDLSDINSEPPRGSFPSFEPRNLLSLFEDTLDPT
# Assay: Inhibition assay for PKMYT1 enzyme activity (ADP-Glo)
# Type: biochemical
# Details: MYT1 2 ng/μL, ATP 25 μM, substrate CDK1 20 ng/μL, 40 min reaction, read-out: IC50 values of compounds for PKMYT1 inhibition activity
# Description: Experimental principle: After co-incubation of PKMYT1 with the compound, the substrate CDK1 was phosphorylated under the action of ATP. ADP produced by the reaction was quantified using an ADP-Glo™ assay kit from Promega to reflect the enzyme activity.
# Experimental method: Using the Echo liquid handler, the test compound was diluted to different concentrations in dimethyl sulfoxide (DMSO) and transferred to a 384-well plate. Thus, the final concentration of the compound in the reaction system started at 1 μM and was subjected to a 3-fold serial dilution, with the final DMSO concentration maintained at 1%. 50 nL/well of the test compound solution was added. 3 μL/well of MYT1 diluted with Kinase Dilution Buffer was then added. […] After incubation for 30 min, the fluorescence signal values were measured using an Envision microplate reader.
# The % compound inhibition was calculated and fitted using XLfit software to obtain the IC50 value of the compound. […]
# Herein, the experimental well, blank well, and DMSO group refer to the fluorescence signal values recorded from the experimental group, blank group, and DMSO group, respectively.
# The inhibitory activity of the compounds of the present application on PKMYT1 was determined by the above assay, and the IC50 values obtained are as shown in Table 1.
row,Structure (SMILES),IC50
1,"Cc1ccc(O)c(C)c1-n1c(N)c2c3c(ncnc31)-c1ccccc1NC2=O [Compound 1, 5-amino-4-(3-hydroxy-2,6-dimethylphenyl)-4,7-dihydro-6H-1,3,4,7-tetraazadibenzo[cd,f]azulen-6-one]",8.8 nM
2,"Cc1nc2c3c(c(N)n(-c4c(C)ccc(O)c4C)c3n1)C(=O)Nc1ccccc1-2 [Compound 2, 5-amino-4-(3-hydroxy-2,6-dimethylphenyl)-2-methyl-4,7-dihydro-6H-1,3,4,7-tetraazadibenzo[cd,f]azulen-6-one]",5.7 nM

# Test system: HCC1569 cells
# Assay: Inhibition of tumor cell proliferation (CTG, HCC1569)
# Type: cell-based
# Details: Homo sapiens, 168 h, 7 days incubation, CTG readout, read-out: IC50 of compounds for inhibition of HCC1569 cell growth
# Description: Experimental principle: The compound was incubated with tumor cells for 7 days, and ATP in viable cells was quantified using the CTG kit from Promega to evaluate the effect of the compound on tumor cell proliferation.
# Experimental method: The cultured cells were resuspended after being rinsed with PBS (for adherent cells) and digested with 0.25% Trypsin-EDTA, followed by cell counting to determine cell density and viability. 3000 HCC1569 cells/well were diluted with RPMI Medium 1640 containing 10% FBS, added to a 96-well plate (90 μL/well), and cultured in an incubator at 37° C. with 5% CO2 for 24 h. The test compound was diluted to different concentrations in dimethyl sulfoxide (DMSO) and added to a 96-well plate. Thus, the final concentration of the compound in the reaction system started at 25 μM and was subjected to a 4-fold serial dilution, with the final DMSO concentration maintained at 0.25%. The compound and cells were further incubated at 37° C. with 5% CO2 for 7 days. 50 μL/well of CTG was then added to measure the inhibitory effect of the compound on tumor cell growth, and the inhibition rate and half-maximal inhibitory concentration (IC50) were calculated.
# The % compound inhibition was calculated and fitted using XLfit software to obtain the IC50 of the compound.
# Blank wells and DMSO wells were set up. The blank well contained 100 μL of RPMI Medium 1640 with 10% FBS, where the inhibition rate of the compound on tumor cell growth was considered 100%. The DMSO well contained 0.25% DMSO added to the cell well, where the inhibition rate of the compound on tumor cell growth was considered 0%.
row,Structure (SMILES),IC50
1,"Cc1ccc(O)c(C)c1-n1c(N)c2c3c(ncnc31)-c1ccccc1NC2=O [Compound 1, 5-amino-4-(3-hydroxy-2,6-dimethylphenyl)-4,7-dihydro-6H-1,3,4,7-tetraazadibenzo[cd,f]azulen-6-one]",42 nM
2,"Cc1nc2c3c(c(N)n(-c4c(C)ccc(O)c4C)c3n1)C(=O)Nc1ccccc1-2 [Compound 2, 5-amino-4-(3-hydroxy-2,6-dimethylphenyl)-2-methyl-4,7-dihydro-6H-1,3,4,7-tetraazadibenzo[cd,f]azulen-6-one]",22 nM
3,"Cc1nc2c3c(c(N)n(-c4c(C)ccc(O)c4C)c3n1)C(=O)Nc1c-2cnn1C(F)F [Compound 42, 5-amino-8-(difluoromethyl)-4-(3-hydroxy-2,6-dimethylphenyl)-2-methyl-7,8-dihydro-1,3,4,7,8,9-hexaazabenzo[cd]cyclopenta[f]azulen-6(4H)-one]",46.3 nM
4,"Cc1nc2c3c(c(N)n(-c4c(C)ccc(O)c4C)c3n1)C(=O)NCc1cnccc1-2 [Compound 5, 2-amino-1-(3-hydroxy-2,6-dimethylphenyl)-11-methyl-4,5-dihydro-1,4,7,10,12-pentaazabenzo[4,5]cyclooctatetraeno[1,2,3-cd]inden-3(1H)-one]",539 nM
5,"Cc1nc2c3c(c(N)n(-c4c(C)ccc(O)c4C)c3n1)C(=O)NCc1nc(CO)ccc1-2 [Compound 32, 2-amino-1-(3-hydroxy-2,6-dimethylphenyl)-7-(hydroxymethyl)-11-methyl-4,5-dihydro-1,4,6,10,12-pentaazabenzo[4,5]cyclooctatetraeno[1,2,3-cd]inden-3(1H)-one]",798 nM
6,"COc1nccc2c1CNC(=O)c1c(N)n(-c3c(C)ccc(O)c3C)c3nc(C)nc-2c13 [Compound 23, 2-amino-1-(3-hydroxy-2,6-dimethylphenyl)-6-methoxy-11-methyl-4,5-dihydro-1,4,7,10,12-pentaazabenzo[4,5]cyclooctatetraeno[1,2,3-cd]inden-3(1H)-one]",24.9 nM
7,"Cc1nc2c3c(c(N)n(-c4c(C)ccc(O)c4C)c3n1)C(=O)NCc1nc(C3CC3)ccc1-2 [Compound 28, 2-amino-7-cyclopropyl-1-(3-hydroxy-2,6-dimethylphenyl)-11-methyl-4,5-dihydro-1,4,6,10,12-pentaazabenzo[4,5]cyclooctatetraeno[1,2,3-cd]inden-3(1H)-one]",70 nM
8,"Cc1nc2c3c(c(N)n(-c4c(C)ccc(O)c4C)c3n1)C(=O)NCc1ccccc1-2 [Compound 3, 2-amino-1-(3-hydroxy-2,6-dimethylphenyl)-11-methyl-4,5-dihydro-1,4,10,12-tetraazabenzo[4,5]cyclooctatetraeno[1,2,3-cd]inden-3(1H)-one]",293 nM
9,"Cc1nc2c3c(c(N)n(-c4c(C)ccc(O)c4C)c3n1)C(=O)NCc1c(C#N)cccc1-2 [Compound 27, 2-amino-1-(3-hydroxy-2,6-dimethylphenyl)-11-methyl-3-oxo-1,3,4,5-tetrahydro-1,4,10,12-tetraazabenzo[4,5]cyclooctatetraeno[1,2,3-cd]indene-6-carbonitrile]",131 nM
10,"COc1c(F)ccc2c1CNC(=O)c1c(N)n(-c3c(C)ccc(O)c3C)c3nc(C)nc-2c13 [Compound 30, 2-amino-7-fluoro-1-(3-hydroxy-2,6-dimethylphenyl)-6-methoxy-11-methyl-4,5-dihydro-1,4,10,12-tetraazabenzo[4,5]cyclooctatetraeno[1,2,3-cd]inden-3(1H)-one]",308 nM
11,"Cc1nc2c3c(c(N)n(-c4c(C)ccc(O)c4C)c3n1)C(=O)Nc1cccnc1-2 [Compound 20, 5-amino-4-(3-hydroxy-2,6-dimethylphenyl)-2-methyl-4,7-dihydro-6H-1,3,4,7,11-pentaazadibenzo[cd,f]azulen-6-one]",25.5 nM
12,"Cc1nc2c3c(c(N)n(-c4c(C)ccc(O)c4C)c3n1)C(=O)NCc1nc(OC3CC3)ccc1-2 [Compound 31, 2-amino-7-cyclopropoxy-1-(3-hydroxy-2,6-dimethylphenyl)-11-methyl-4,5-dihydro-1,4,6,10,12-pentaazabenzo[4,5]cyclooctatetraeno[1,2,3-cd]inden-3(1H)-one]",297 nM
